# Biological target: MCH receptor (Homo sapiens, UniProt Q99705)
# Assay: High throughput functional screening FLIPR/FDSS6000: inhibition of MCH-evoked intracellular Ca2+ changes
# Format: cell-based
# Details: class by percent of control at 10^-7 M or IC50
# How it was run: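 Cells expressing a non-endogenous, constitutively active MCH receptor were loaded with 4 μM Fluo4-AM (with probenecid) for 1 hr at 37° C. Test compound was preincubated 3 min at 37° C before 50 nM MCH was added. The [Ca2+]i transient was read at Ex 488/Em 530 nm for 290 s.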
row,Compound,class
1,"CCc1ccccc1NC(=S)NC[C@H]1CC[C@@H](Nc2nc(N(C)C)c3ccccc3n2)CC1 [compound 640, N-[(cis-4-{[4-(dimethylamino)quinazolin-2-yl]amino}cyclohexyl)methyl]-N′-(2-ethylphenyl)thiourea]",2 (Class 2: The value of percent of control at 10^−7 M was from 40% to 60% or the value of IC50 was from 50 nM to 200 nM.)
2,CN(C)c1ccc(NC(=O)NC[C@H]2CC[C@@H](Nc3nc(N(C)C)c4ccccc4n3)CC2)cc1 [compound 772],3 (Class 3: The value of percent of control at 10^−7 M was more than 60% or the value of IC50 was more than 200 nM.)
3,CN(C)c1nc(N[C@H]2CC[C@@H](CNC(=S)Nc3ccc(S(N)(=O)=O)cc3)CC2)nc2ccccc12 [compound 742],3 (Class 3: The value of percent of control at 10^−7 M was more than 60% or the value of IC50 was more than 200 nM.)
4,"CN(C)c1nc(N[C@H]2CC[C@@H](CNC(=O)NCc3ccccc3F)CC2)nc2ccccc12 [compound 499, N-[(cis-4-{[4-(dimethylamino)quinazolin-2-yl]amino}cyclohexyl)methyl]-N′-(2-fluorobenzyl)urea]",2 (Class 2: The value of percent of control at 10^−7 M was from 40% to 60% or the value of IC50 was from 50 nM to 200 nM.)
5,CN(C)c1nc(N[C@H]2CC[C@@H](CNC(=O)Nc3cc(C(F)(F)F)ccc3F)CC2)nc2ccccc12 [compound 496],3 (Class 3: The value of percent of control at 10^−7 M was more than 60% or the value of IC50 was more than 200 nM.)
6,"CCc1cccc(NC(=O)NC[C@H]2CC[C@@H](Nc3nc(N(C)C)c4ccccc4n3)CC2)c1 [compound 531, N-[(cis-4-{[4-(dimethylamino)quinazolin-2-yl]amino}cyclohexyl)methyl]-N′-(3-ethylphenyl)urea]",2 (Class 2: The value of percent of control at 10^−7 M was from 40% to 60% or the value of IC50 was from 50 nM to 200 nM.)
7,Cc1cccc(NC(=S)NC[C@H]2CC[C@@H](Nc3nc(N(C)C)c4ccccc4n3)CC2)c1C [compound 780],3 (Class 3: The value of percent of control at 10^−7 M was more than 60% or the value of IC50 was more than 200 nM.)
8,"CC(C)c1ccccc1NC(=S)NC[C@H]1CC[C@@H](Nc2nc(N(C)C)c3ccccc3n2)CC1 [compound 680, N-[(cis-4-{[4-(dimethylamino)quinazolin-2-yl]amino}cyclohexyl)methyl]-N′-(2-isopropylphenyl)thiourea]",2 (Class 2: The value of percent of control at 10^−7 M was from 40% to 60% or the value of IC50 was from 50 nM to 200 nM.)
9,CCOC(=O)[C@H](Cc1ccccc1)NC(=O)NC[C@H]1CC[C@@H](Nc2nc(N(C)C)c3ccccc3n2)CC1 (relative stereo) [compound 756],3 (Class 3: The value of percent of control at 10^−7 M was more than 60% or the value of IC50 was more than 200 nM.)
10,Cc1ccc(Cl)cc1NC(=S)N[C@H]1CC[C@@H](Nc2nc(N(C)C)c3ccccc3n2)CC1 [compound 238],2 (Class 2: The value of percent of control at 10^−7 M was from 40% to 60% or the value of IC50 was from 50 nM to 200 nM.)
11,CN(C)c1nc(N[C@H]2CC[C@@H](CNC(=O)Nc3cccc(C(F)(F)F)c3)CC2)nc2ccccc12 [compound 456],3 (Class 3: The value of percent of control at 10^−7 M was more than 60% or the value of IC50 was more than 200 nM.)
12,CN(C)c1nc(N[C@H]2CC[C@@H](NC(=S)Nc3cccc4nsnc34)CC2)nc2ccccc12 [compound 398],3 (Class 3: The value of percent of control at 10^−7 M was more than 60% or the value of IC50 was more than 200 nM.)
13,CN(C)c1nc(N[C@H]2CC[C@@H](NC(=O)Nc3ccc4c(c3)C(F)(F)OC(F)(F)O4)CC2)nc2ccccc12 [compound 335],3 (Class 3: The value of percent of control at 10^−7 M was more than 60% or the value of IC50 was more than 200 nM.)
14,CN(C)c1nc(N[C@H]2CC[C@@H](CNC(=O)Nc3ccc(F)c([N+](=O)[O-])c3)CC2)nc2ccccc12 [compound 436],3 (Class 3: The value of percent of control at 10^−7 M was more than 60% or the value of IC50 was more than 200 nM.)
15,CN(C)c1nc(N[C@H]2CC[C@@H](CNC(=S)Nc3ccc([N+](=O)[O-])cc3Cl)CC2)nc2ccccc12 [compound 638],3 (Class 3: The value of percent of control at 10^−7 M was more than 60% or the value of IC50 was more than 200 nM.)
16,CN(C)c1nc(N[C@H]2CC[C@@H](CNC(=S)NC(C)(C)C)CC2)nc2ccccc12 [compound 623],3 (Class 3: The value of percent of control at 10^−7 M was more than 60% or the value of IC50 was more than 200 nM.)
17,"Cc1cc(Br)cc(C)c1NC(=O)NC[C@H]1CC[C@@H](Nc2nc(N(C)C)c3ccccc3n2)CC1 [compound 753, N-(4-bromo-2,6-dimethylphenyl)-N′-[(cis-4-{[4-(dimethylamino)quinazolin-2-yl]amino}cyclohexyl)methyl]urea]",1 (Class 1: The value of percent of control at 10^−7 M was less than 40% or the value of IC50 was less than 50 nM.)
18,"CC(C)c1ccc(NC(=S)N[C@H]2CC[C@@H](Nc3nc(N(C)C)c4ccccc4n3)CC2)cc1 [compound 275, N-(cis-4-{[4-(dimethylamino)quinazolin-2-yl]amino}cyclohexyl)-N′-(4-isopropylphenyl)thiourea]",2 (Class 2: The value of percent of control at 10^−7 M was from 40% to 60% or the value of IC50 was from 50 nM to 200 nM.)

# Same assay, conditions: class by percent of control at 10^-7 M or by IC50; read-out: class
row,IC50 [nM],Compound
1,> 200,CN(C)c1nc(N[C@H]2CC[C@@H](NC(=O)Nc3c(Cl)cccc3Cl)CC2)nc2ccccc12 [compound 84]
2,< 50,"CCOC(=O)c1cccc(NC(=O)N[C@H]2CC[C@@H](Nc3nc(N(C)C)c4ccccc4n3)CC2)c1 [compound 29, ethyl 3-({[(cis-4-{[4-(dimethylamino)quinazolin-2-yl]amino}cyclohexyl)amino]carbonyl}amino)benzoate]"
3,< 50,"COc1ccccc1NC(=S)N[C@H]1CC[C@@H](Nc2nc(N(C)C)c3ccccc3n2)CC1 [compound 185, N-(cis-4-{[4-(dimethylamino)quinazolin-2-yl]amino}cyclohexyl)-N′-(2-methoxyphenyl)thiourea]"
4,> 200,CN(C)c1nc(N[C@H]2CC[C@@H](CNC(=S)NCCN3CCCCC3)CC2)nc2ccccc12 [compound 813]
5,> 200,"CCOC(=O)c1c(NC(=S)NC[C@H]2CC[C@@H](Nc3nc(N(C)C)c4ccccc4n3)CC2)sc2c1CCCC2 [compound 801, ethyl 2-[({[(cis-4-{[4-(dimethylamino)quinazolin-2-yl]amino}cyclohexyl)methyl]amino}carbonothioyl)amino]-4.5.6.7-tetrahydro-1-benzothiophene-3-carboxylate]"
6,> 200,COC(=O)c1sccc1NC(=S)NC[C@H]1CC[C@@H](Nc2nc(N(C)C)c3ccccc3n2)CC1 [compound 802]
7,> 200,CN(C)c1nc(N[C@H]2CC[C@@H](NC(=O)Nc3c(F)cccc3F)CC2)nc2ccccc12 [compound 25]

row,Compound,IC50 [nM]
1,Cc1ccc(OC(=O)NC[C@H]2CC[C@@H](Nc3nc(N(C)C)c4ccccc4n3)CC2)cc1 [compound 881],> 200

# Same assay, conditions: class by percent of control at 10^−7 M or by IC50; read-out: class
row,IC50 [nM],Compound
1,< 50,"COc1ccc(OCC(=O)N[C@H]2CC[C@@H](Nc3nc(N(C)C)c4ccccc4n3)CC2)cc1 [Example 1080, N-(cis-4-{[4-(dimethylamino)quinazolin-2-yl]amino}cyclohexyl)-2-(4-methoxyphenoxy)acetamide]"
2,50 to 200,"CN(C)c1nc(N[C@H]2CC[C@@H](NC(=O)C(O)c3ccc(Br)cc3)CC2)nc2ccccc12 (relative stereo) [Example 1107, 2-(4-bromophenyl)-N-(cis-4-{[4-(dimethylamino)quinazolin-2-yl]amino}cyclohexyl)-2-hydroxyacetamide]"
3,< 50,"CN(C)c1nc(N[C@H]2CC[C@@H](C(=O)NCc3ccc(Br)cc3F)CC2)nc2ccccc12 [Example 1162, cis-N-(4-bromo-2-fluorobenzyl)-4-{[4-(dimethylamino)quinazolin-2-yl]amino}cyclohexanecarboxamide]"
4,> 200,"CN(C)c1nc(N[C@H]2CC[C@@H](CNC(=O)c3ccc(OC(F)(F)F)cc3)C2)nc2ccccc12 [Example 1128, N-[((1R,3S)-3-{[4-(dimethylamino)quinazolin-2-yl]amino}cyclopentyl)methyl]-4-(trifluoromethoxy)benzamide]"
5,50 to 200,"CN(C)c1nc(N[C@H]2CC[C@@H](C(=O)NCc3ccc(Cl)nc3)CC2)nc2cc(F)c(F)cc12 [Example 996, cis-N-[(6-chloropyridin-3-yl)methyl]-4-{[4-(dimethylamino)-6,7-difluoroquinazolin-2-yl]amino}cyclohexanecarboxamide]"
6,< 50,"CN(C)c1nc(N[C@H]2CC[C@@H](C(=O)NCc3ccc(OC(F)(F)F)cc3)CC2)nc2cc(F)c(F)cc12 [Example 1004, cis-4-{[4-(dimethylamino)-6,7-difluoroquinazolin-2-yl]amino}-N-[4-(trifluoromethoxy)benzyl]cyclohexanecarboxamide]"
7,< 50,"CN(C)c1nc(N[C@H]2CC[C@@H](C(=O)NCc3cc(Cl)cc(Cl)c3)CC2)nc2cc(F)c(F)cc12 [Example 1001, cis-N-(3,5-dichlorobenzyl)-4-{[4-(dimethylamino)-6,7-difluoroquinazolin-2-yl]amino}cyclohexanecarboxamide]"
8,< 50,N-(cis-4-{[4-(dimethylamino)quinazolin-2-yl]amino}cyclohexyl)-6-(3-methylphenoxy)nicotinamide [Example 1055]
9,50 to 200,"CN(C)c1nc(N[C@H]2CC[C@@H](NC(=O)Nc3ccccc3Cl)CC2)nc2ccccc12 [Example 1011, N-(2-chlorophenyl)-N′-(cis-4-{[4-(dimethylamino)quinazolin-2-yl]amino}cyclohexyl)urea]"
10,< 50,"Cc1ccc(F)cc1CNC(=O)[C@H]1CC[C@@H](Nc2nc(N(C)C)c3ccccc3n2)CC1 [Example 1146, cis-4-{[4-(dimethylamino)quinazolin-2-yl]amino}-N-(5-fluoro-2-methylbenzyl)cyclohexanecarboxamide]"
